The values below come from patent US20060258598A1, “Alpha-keto carbonyl calpain inhibitors” (priority 2003, published 2006).

Molecules are shown by their SMILES.

The subject of test [1] is Primary fibroblasts from donors with Friedreich Ataxia (FRDA). Kind of test: BSO assay (cell viability under BSO-induced oxidative stress). Conditions: Homo sapiens, Fibroblast, 24 h preincubation, 1 mM BSO. Type of test: cell-based, human. The method, boiled down: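 FRDA patient primary fibroblasts were pretreated with compounds for 24 h, then exposed to 1 mM BSO (final) until toxicity appeared in BSO-only controls (typically 16–48 h). Viability was read by calcein AM (1.2 μM)/ethidium homodimer (4 μM) staining, 60 min RT, fluorescence 485/525 nm.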

A further test deals with T1, human μ-calpain (Homo sapiens, UniProt P07384).
T1 construct: purchased Calbiochem
T1 sequence (P07384 1-714): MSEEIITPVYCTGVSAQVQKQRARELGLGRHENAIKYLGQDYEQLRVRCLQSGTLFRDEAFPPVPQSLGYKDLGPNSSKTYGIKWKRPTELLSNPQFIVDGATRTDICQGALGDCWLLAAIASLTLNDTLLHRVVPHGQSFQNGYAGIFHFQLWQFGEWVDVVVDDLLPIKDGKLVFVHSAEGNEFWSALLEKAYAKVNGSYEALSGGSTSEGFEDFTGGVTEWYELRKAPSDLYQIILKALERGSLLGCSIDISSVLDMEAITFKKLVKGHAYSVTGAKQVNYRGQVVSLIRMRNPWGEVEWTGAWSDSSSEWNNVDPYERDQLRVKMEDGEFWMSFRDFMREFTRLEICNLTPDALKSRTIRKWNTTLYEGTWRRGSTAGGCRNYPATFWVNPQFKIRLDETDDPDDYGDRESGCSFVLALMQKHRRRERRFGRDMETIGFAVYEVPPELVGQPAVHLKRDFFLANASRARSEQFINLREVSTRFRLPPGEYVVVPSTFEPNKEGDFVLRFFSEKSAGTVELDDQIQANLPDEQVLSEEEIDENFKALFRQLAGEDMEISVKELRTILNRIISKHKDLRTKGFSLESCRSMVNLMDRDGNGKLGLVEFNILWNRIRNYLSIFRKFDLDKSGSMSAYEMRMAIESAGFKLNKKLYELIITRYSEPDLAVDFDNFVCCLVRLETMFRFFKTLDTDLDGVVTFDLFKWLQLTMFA
T1 sequence (P04632 1-268 partner): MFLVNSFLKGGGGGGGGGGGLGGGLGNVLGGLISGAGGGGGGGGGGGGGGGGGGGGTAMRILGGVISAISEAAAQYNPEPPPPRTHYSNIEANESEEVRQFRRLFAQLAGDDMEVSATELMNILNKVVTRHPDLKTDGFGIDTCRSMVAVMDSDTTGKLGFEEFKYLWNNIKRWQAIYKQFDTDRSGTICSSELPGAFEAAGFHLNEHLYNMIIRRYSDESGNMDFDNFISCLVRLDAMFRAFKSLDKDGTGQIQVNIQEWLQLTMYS
As to the kind of experiment: Enzymatic calpain inhibition assay. Type of test: biochemical. Conditions: substrate Suc-Leu-Tyr-AMC, read-out: Calp I IC50. The method, boiled down:
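Human μ-calpain (0.5 μg) with 250 μM Suc-Leu-Tyr-AMC in 100 mM imidazole pH 7.5, 5 mM cysteine, 5 mM CaCl2. AMC fluorescence (ex 360/em 440 nm) followed 30 min at 30 °C; IC50 determined graphically from initial velocities versus inhibitor concentration.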

Another test has as its target T2, 20S Proteasome (Oryctolagus cuniculus, UniProt G1T4Q9).
T2 sequence (G1T4Q9 1-263): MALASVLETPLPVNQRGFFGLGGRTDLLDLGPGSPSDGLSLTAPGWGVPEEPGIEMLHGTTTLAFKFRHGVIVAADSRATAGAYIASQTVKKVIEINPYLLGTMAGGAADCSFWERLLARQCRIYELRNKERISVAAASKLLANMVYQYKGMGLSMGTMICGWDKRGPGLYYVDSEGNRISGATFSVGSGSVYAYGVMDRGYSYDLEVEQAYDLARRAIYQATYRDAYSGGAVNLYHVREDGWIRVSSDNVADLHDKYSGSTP
As to the kind of experiment: 20S Proteasome assay. Type of test: biochemical, Rabbit. Conditions: substrate Suc-Leu-Leu-Val-Tyr-AMC; read-out: 20S Prot IC50. On the procedure: 25 μl of a reaction buffer containing 400 μM of the fluorogenic substrate Suc-Leu-Leu-Val-Tyr-AMC (Bachem) are dispensed per well of a white microtiter plate. Test compounds dissolved in 0.5 μl DMSO are added. To start the reaction; 25 μl of reaction buffer containing 35 ng of enzyme (20S Proteasome, Rabbit, Calbiochem) are added. The increase in fluorescence (excitation at 360 nm; emission at 440 nm) is measured over 30 min at 30° C. at 30″. The IC50's are then determined from the slopes.

For the compound `CCNC(=O)C(=O)[C@H](Cc1ccc(Br)cc1)NC(=O)[C@H](CC(C)C)NC(=O)CCCCC1CCSS1` (stereo partly drawn) [Example 64], in test [1], the EC50 worked out at 1000 nM. Besides, the IC50 turned out to be 25 nM at human μ-calpain and 40 nM on 20S Proteasome.
